In patent US20060270614A1, “Use of chalcones for the treatment of viral disorders” (priority 2005, published 2006) one finds IC50 data, which are given here for 4 compounds.

Molecules are shown by their SMILES. Where two headings read alike, the source gives them in different places.

The test relates to HSV-1. The experiment in a line: HSV-1 assay: CPE inhibition in Vero cells, MTS dye uptake. The following applies: read-out: IC50 (inhibitory concentration at which the compound provides 50% CPE reduction). The class given is cell-based, herpes simplex virus-1. The procedure: In vitro evaluation of anti-viral activity can be determined by plaque reduction as reported in J. Nat. Prod. (1990) 53, 340-344; or as described in Example 1. To pre-grown Vero cells (ATCC CCL-81 is added a virus suspension (ATCC VR-260) mixed with complete medium containing various concentrations of the test compound and the mixture is incubated until maximum cytopathic effect (CPE) is observed in the untreated virus control culture. The CPE inhibition is determined by adding a dye (MTS, (3-[4,5-dimethylthiazol-2-yl-5]-[3-carboxymethyoxyphenyl]-2-[4-sulfophenyl]-2H tetrazolium)) uptake procedure (Promega's Cell Titer Aqueous One Solution). This method measures cell viability and is based on the reduction of the tetrazolium-based MTS by mitochondrial enzymes of viable host cells to MTS formazan. The purple color of the MTS formazan is then measured spectrophotometrically. The optical density (OD) value of each culture is a function of the amount of formazan produced which is proportional to the number of viable cells.
Vero cells (ATCC CCL-81) are pregrown in 96-well tissue culture plates using Dulbecco's Modified Eagle's Medium (DMEM) supplemented with 10% heat-inactivated fetal bovine serum (FBS), L-Glutamine, penicillin, and streptomycin.
To each of the replicate cell cultures is added 50 μL of the test article solution and 50 μL of virus suspension (ATCC VR-260). The multiplicity of infection used is about 0.05 plaque-forming unit (PFU) per cell. Cell controls containing medium alone, virus-infected controls containing medium and virus, drug cytotoxicity controls containing medium and each drug concentration, reagent controls containing culture medium only (no cells), and the test article colorimetric controls containing the test article and medium (no cells) are run simultaneously with the test samples. The plates are incubated at 37° C. in a humidified atmosphere containing 5% CO2 until maximum CPE (cytopathic effect) is observed in the untreated virus control cultures (Day 5).
CPE inhibition is determined by a dye (MTS) uptake procedure (Promega's Cell Titer Aqueous One Solution). This method measures cell viability and is based on the reduction of the tetrazolium-based MTS by mitochondrial enzymes of viable host cells to MTS formazan. MTS (10 μl) is added to each of the plate wells. The plates are incubated at 37° C. for 4 hours. The purple color of the MTS formazan is then measured spectrophotometrically at 490/650 nm. The optical density (OD) value of each culture is a function of the amount of formazan produced which is proportional to the number of viable cells.
The percent of CPE (cytopathic effect) reduction of the virus-infected wells (antiviral efficacy) and the percent cell viability of uninfected drug control wells (cytotoxicity) are calculated. […]

Setting [1] is: Human alphaherpesvirus 1, 120 h, Vero cells (ATCC CCL-81), virus ATCC VR-260, about 0.05 PFU per cell, Day 5, MTS.

For the compound `O=C(/C=C/c1ccc(O)c(O)c1)c1ccc(O)cc1O` [2′,3,4,4′-Tetrahydroxychalcone], the IC50 under setting [1] came out at 26.6 µM.

Consider `COc1ccc(/C=C/C(=O)c2ccc(O)cc2O)cc1OC` [2′,4′-Dihydroxy-3,4-dimethoxychalcone], for which, for the setting “Human alphaherpesvirus 1, Vero, 120 h”, the IC50 was 8.36 µM.

Consider `COc1ccc(/C=C/C(=O)c2ccc(O)cc2O)cc1` [2′,4′-Dihydroxy-4-methoxychalcone], for which the IC50 under setting [1] stood at 11.1 µM.

Regarding `O=C1/C(=C/c2ccc(O)c(O)c2)Oc2cc(O)ccc21` [(Z)-2-(3,4-Dihydroxybenzylidene)-6-hydroxybenzofuran-3(2H)-one, reference compound], the IC50 under setting [1] is greater than 100 µM.
